# Reference: patent US20110319416A1, “Subunit Selective NMDA Receptor Antagonists For The Treatment Of Neurological Conditions” (EMORY UNIVERSITY, priority 2009, published 2011)
# Like-named read-outs stand apart in the source and are kept apart here.
# Experiments:
# [1] = biological target: T1, NR1/NR2D (Rattus norvegicus, UniProt Q62645); assay: Ca2+ fluorescence screening assay in NR1/NR2D expressing BHK cells (96 well); assay type: cell-based; parameters: expressed in transfected cells; host or cells: BHK-21 cells; NR1 induced by doxycyclin (Tet-On), NR2D constitutive
# [2] = biological target: T1, NR1/NR2D; assay: Two electrode voltage clamp, Xenopus oocytes expressing recombinant NR1/NR2D; assay type: cell-based
# Experimental: (§1) Quality of synthesized cRNA was assessed by gel electrophoresis, and quantity was estimated by spectroscopy and gel electrophoresis. Stage V and VI oocytes were surgically removed from the ovaries of large, well-fed and healthy Xenopus laevis anesthetized with 3-amino-benzoic acid ethyl ester (3 gm/l) as previously described. Clusters of isolated oocytes were incubated with 292 U/ml Worthington (Freehold, N.J.) type IV collagenase or 1.3 mg/ml collagenase (Life Technologies, Gaithersburg, MD; 17018-029) for 2 hr in Ca^2+-free solution comprised of (in mM) 115 NaCl, 2.5 KCl, and 10 HEPES, pH 7.5, with slow agitation to remove the follicular cell layer. Oocytes were then washed extensively in the same solution supplemented with 1.8 mM CaCl2 and maintained in Barth's solution comprised of (in mM): 88 NaCl, 1 KCl, 2.4 NaHCO3, 10 HEPES, 0.82 MgSO4, 0.33 Ca(NO3)2, and 0.91 CaCl2 and supplemented with 100 μg/m1 gentamycin, 10 μg/ml streptomycin, and 10 μg/ml penicillin. Oocytes were manually defolliculated and injected within 24 hrs of isolation with 3-5 ng of NR1 subunit cRNA and 7-10 ng of NR2 cRNA subunit in a 50 nl volume, or 5-10 ng of AMPA or kainate receptor cRNAs in a 50 nl volume, and incubated in Barth's solution at 18° C. for 1-7 d. Glass injection pipettes had tip sizes ranging from 10-20 microns, and were backfilled with mineral oil.
# (§2) Two electrode voltage-clamp recordings were made 2-7 days post-injection as previously described. Oocytes were placed in a dual-track plexi-glass recording chamber with a single perfusion line that splits in a Y-configuration to perfuse two oocytes. Dual recordings were made at room temperature (23° C.) using two Warner OC725B two-electrode voltage clamp amplifiers, arranged as recommended by the manufacturer. Glass microelectrodes (1-10 Megaohms) were filled with 300 mM KCl (voltage electrode) or 3 M KCl (current electrode). The bath clamps communicated across silver chloride wires placed into each side of the recording chamber, both of which were assumed to be at a reference potential of 0 mV. Oocytes were perfused with a solution comprised of (in mM) 90 NaCl, 1 KCl, 10 HEPES, and 0.5 BaCl2; pH was adjusted by addition of 1-3 M NaOH of HC1 to 7.4. Oocytes were recorded under voltage clamp at −40 mV. […] In some experiments, 10 μM EDTA was obtained by adding a 1:1000 dilution of 10 mM EDTA, in order to chelate contaminant divalent ions such as Zn^2+. […] Concentration effect curves consisting of 4 to 8 concentrations were obtained in this manner. The baseline leak current at −40 mV was measured before and after recording, and the full recording linearly corrected for any change in leak current. […] Each experiment consisted of recordings from 3 to 10 oocytes obtained from a single frog. Results from multiple experiments were pooled, and the average percent responses at antagonist concentrations were fitted by the equation,
# (§3) Percent Response=(100−minimum)/(1+([conc]/IC50)nH)+minimum
# [3] = biological target: NR1/NR2B (Rattus norvegicus, UniProt P35439+Q00960); assay: Two electrode voltage clamp, Xenopus oocytes expressing recombinant NR1/NR2B; assay type: cell-based
# Experimental: as §1, §2, §3
# [4] = biological target: NR1/NR2C (Rattus norvegicus, UniProt P35439+Q00961); assay: Two electrode voltage clamp, Xenopus oocytes expressing recombinant NR1/NR2C; assay type: cell-based; conditions: for remaining activity at 100 µM: read-out: 2C percent effect at the maximum tested concentration
# Experimental: as §1, §2, §3
# [5] = biological target: NR1/NR2A (Rattus norvegicus, UniProt P35439+Q00959); assay: Two electrode voltage clamp, Xenopus oocytes expressing recombinant NR1/NR2A; assay type: cell-based
# Experimental: as §1, §2, §3
# [6] = biological target: NR1/NR2D (Rattus norvegicus, UniProt P35439+Q62645); assay: Two electrode voltage clamp, Xenopus oocytes expressing recombinant NR1/NR2D; assay type: cell-based; conditions: for remaining activity at 100 µM: read-out: 2D percent effect at the maximum tested concentration
# Experimental: as §1, §2, §3
# [7] = biological target: GluR1 (Rattus norvegicus, UniProt P19490); assay: Two electrode voltage clamp, Xenopus oocytes expressing GluR1; assay type: cell-based; conditions: read-out: GluR1 percent effect at the maximum tested concentration
# Experimental: as §1, §2, §3
# [8] = biological target: NR2D (Homo sapiens, UniProt O15399+Q05586); conditions: estimated Ki; cited from earlier work
# [9] = 10 μM test compound, 100 μM glutamate/1 mM glycine
# [10] = read-out: 2A percent effect at the maximum tested concentration
# [11] = read-out: 2B percent effect at the maximum tested concentration
# [12] = at 100 μM, read-out: 2B percent effect at the maximum tested concentration
# [13] = at 100 μM, read-out: 2A percent effect at the maximum tested concentration
# [14] = logistic fit, minimum forced to 0, read-out: 2C IC50
# [15] = logistic fit, minimum forced to 0, read-out: 2D IC50
# [16] = logistic fit, minimum forced to 0, read-out: 2B IC50
# [17] = logistic fit, minimum forced to 0, read-out: 2A IC50
# NR1/NR2C, sequence (Q00961 20-1237, other chains not shown): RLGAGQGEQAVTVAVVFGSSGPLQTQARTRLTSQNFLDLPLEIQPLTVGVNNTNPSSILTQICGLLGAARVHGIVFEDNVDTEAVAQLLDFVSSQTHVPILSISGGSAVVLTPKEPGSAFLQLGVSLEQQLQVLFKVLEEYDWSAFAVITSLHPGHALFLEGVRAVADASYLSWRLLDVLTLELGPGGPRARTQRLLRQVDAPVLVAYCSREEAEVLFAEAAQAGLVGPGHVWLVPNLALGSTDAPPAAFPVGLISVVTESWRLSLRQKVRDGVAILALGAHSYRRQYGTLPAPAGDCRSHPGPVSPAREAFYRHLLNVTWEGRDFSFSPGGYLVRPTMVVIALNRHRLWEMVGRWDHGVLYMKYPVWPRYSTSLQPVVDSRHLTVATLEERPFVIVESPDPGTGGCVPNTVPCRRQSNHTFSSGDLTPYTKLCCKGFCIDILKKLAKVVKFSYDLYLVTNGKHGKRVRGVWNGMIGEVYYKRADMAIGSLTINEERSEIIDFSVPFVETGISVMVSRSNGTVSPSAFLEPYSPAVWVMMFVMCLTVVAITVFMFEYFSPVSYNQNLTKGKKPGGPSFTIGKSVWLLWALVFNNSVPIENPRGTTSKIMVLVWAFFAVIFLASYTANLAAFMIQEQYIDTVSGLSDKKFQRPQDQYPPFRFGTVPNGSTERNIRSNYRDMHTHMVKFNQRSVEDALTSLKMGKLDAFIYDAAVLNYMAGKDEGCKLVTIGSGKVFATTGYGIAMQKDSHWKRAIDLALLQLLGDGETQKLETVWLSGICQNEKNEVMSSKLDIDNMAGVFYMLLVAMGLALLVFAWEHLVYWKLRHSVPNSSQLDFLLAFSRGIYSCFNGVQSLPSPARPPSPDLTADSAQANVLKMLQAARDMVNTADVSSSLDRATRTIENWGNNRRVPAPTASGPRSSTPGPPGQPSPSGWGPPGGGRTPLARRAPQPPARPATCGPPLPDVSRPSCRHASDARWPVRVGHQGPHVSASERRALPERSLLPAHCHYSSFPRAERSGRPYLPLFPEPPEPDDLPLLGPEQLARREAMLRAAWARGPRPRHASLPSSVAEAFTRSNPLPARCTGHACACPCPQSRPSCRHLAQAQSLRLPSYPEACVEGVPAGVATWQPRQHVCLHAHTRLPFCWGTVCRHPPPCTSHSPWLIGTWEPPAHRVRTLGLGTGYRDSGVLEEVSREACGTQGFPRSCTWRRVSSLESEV
# NR1/NR2B, sequence (Q00960 27-1482, other chains not shown): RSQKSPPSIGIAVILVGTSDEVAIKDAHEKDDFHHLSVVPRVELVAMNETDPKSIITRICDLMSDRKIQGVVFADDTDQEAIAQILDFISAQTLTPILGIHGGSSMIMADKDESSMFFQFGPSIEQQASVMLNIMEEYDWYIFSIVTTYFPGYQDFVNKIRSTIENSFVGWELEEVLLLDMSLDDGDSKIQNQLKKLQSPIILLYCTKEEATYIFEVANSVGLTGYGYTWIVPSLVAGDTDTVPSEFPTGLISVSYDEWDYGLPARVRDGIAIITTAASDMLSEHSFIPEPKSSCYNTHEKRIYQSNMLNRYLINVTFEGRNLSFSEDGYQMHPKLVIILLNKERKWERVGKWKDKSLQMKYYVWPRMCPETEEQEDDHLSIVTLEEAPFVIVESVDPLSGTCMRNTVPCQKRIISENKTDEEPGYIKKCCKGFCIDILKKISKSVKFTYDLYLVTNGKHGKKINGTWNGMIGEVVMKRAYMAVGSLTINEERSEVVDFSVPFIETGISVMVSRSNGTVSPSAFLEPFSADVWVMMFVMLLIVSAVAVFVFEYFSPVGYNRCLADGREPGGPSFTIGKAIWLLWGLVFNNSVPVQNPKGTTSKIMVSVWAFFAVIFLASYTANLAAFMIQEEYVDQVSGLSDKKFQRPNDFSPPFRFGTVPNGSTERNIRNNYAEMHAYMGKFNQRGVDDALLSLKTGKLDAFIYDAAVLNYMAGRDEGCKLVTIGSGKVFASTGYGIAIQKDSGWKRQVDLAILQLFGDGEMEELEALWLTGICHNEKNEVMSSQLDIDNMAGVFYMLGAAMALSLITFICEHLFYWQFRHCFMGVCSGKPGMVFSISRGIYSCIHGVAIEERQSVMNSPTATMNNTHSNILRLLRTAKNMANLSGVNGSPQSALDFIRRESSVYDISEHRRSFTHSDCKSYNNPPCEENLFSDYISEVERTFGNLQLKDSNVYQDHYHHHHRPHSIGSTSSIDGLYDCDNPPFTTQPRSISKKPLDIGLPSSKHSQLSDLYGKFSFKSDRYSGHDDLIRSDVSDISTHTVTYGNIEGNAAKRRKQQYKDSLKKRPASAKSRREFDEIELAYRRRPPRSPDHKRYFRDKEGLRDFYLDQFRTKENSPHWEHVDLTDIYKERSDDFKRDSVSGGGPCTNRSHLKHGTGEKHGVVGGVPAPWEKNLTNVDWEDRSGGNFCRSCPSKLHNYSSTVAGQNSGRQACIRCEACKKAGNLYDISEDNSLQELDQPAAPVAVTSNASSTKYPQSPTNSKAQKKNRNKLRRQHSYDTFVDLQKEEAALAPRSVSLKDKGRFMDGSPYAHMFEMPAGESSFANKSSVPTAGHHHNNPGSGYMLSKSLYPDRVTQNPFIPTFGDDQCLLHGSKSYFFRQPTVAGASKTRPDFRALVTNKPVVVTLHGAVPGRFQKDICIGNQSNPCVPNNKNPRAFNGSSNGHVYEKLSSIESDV
# NR1/NR2D (Rattus norvegicus, UniProt P35439+Q62645), sequence (Q62645 28-1323, other chains not shown): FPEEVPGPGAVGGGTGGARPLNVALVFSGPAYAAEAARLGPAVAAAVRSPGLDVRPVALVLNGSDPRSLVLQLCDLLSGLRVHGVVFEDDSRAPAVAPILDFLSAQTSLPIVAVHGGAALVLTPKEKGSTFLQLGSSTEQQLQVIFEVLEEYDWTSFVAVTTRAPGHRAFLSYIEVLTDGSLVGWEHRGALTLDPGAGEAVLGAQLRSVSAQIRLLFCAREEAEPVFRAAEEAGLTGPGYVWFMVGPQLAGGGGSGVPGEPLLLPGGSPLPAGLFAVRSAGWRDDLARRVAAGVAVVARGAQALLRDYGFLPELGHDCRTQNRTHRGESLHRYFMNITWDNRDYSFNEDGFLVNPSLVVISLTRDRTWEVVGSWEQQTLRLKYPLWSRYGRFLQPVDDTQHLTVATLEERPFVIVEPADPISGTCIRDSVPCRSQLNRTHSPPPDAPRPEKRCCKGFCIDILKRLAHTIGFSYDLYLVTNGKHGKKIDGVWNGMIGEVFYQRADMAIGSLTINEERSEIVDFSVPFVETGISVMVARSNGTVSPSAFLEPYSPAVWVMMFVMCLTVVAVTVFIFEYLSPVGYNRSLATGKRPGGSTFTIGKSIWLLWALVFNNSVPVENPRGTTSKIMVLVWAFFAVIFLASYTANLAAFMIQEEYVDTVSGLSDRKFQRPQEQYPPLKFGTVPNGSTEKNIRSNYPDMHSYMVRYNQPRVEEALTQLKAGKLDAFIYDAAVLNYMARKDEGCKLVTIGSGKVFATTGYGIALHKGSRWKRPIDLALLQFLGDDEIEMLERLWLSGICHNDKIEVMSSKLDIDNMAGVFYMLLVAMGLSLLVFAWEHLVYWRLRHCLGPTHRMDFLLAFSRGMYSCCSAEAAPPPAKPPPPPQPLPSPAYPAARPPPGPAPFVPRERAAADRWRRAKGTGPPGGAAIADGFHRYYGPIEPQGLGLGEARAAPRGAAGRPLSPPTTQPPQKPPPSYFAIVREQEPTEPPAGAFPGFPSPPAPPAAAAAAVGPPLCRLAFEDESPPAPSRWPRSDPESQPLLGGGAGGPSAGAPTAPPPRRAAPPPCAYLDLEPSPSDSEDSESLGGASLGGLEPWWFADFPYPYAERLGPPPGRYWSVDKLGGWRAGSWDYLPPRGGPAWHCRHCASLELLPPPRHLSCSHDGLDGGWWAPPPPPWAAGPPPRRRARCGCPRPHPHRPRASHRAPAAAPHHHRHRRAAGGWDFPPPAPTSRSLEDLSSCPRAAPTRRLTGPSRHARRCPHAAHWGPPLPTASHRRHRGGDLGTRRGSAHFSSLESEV
# T1 sequence (Q62645 28-1323, other chains not shown): as above
# GluR1, sequence (P19490 19-907): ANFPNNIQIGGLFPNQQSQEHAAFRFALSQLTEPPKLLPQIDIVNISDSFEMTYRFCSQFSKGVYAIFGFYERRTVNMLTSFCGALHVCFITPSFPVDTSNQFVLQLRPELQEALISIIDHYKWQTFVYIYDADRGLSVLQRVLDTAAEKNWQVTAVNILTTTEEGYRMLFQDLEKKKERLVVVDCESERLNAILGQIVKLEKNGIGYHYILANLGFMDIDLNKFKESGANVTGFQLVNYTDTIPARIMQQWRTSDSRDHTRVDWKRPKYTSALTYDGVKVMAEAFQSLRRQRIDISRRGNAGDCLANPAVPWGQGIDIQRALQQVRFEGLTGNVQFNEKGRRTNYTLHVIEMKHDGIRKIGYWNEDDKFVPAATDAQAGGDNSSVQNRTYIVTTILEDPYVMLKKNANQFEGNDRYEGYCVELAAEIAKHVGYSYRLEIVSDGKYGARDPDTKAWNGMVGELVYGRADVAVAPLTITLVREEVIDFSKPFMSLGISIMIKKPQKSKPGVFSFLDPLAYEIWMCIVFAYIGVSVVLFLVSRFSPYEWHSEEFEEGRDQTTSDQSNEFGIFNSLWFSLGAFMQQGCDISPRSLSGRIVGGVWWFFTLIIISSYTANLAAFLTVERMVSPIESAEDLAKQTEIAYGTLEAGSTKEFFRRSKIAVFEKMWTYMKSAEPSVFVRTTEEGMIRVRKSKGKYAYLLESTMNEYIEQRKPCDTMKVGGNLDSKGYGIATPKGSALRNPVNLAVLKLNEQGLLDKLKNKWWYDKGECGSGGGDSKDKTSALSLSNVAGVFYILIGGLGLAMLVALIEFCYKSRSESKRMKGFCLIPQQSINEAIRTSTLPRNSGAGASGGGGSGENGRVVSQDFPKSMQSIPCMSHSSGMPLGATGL
compound,measurement,setting,value
C=CCN1CC[C@]23CCCC[C@H]2[C@H]1Cc1ccc(O)cc13 [levallorphan],identification in test screen of NR1/NR2D expressing BHK cells,[1]; [9],successfully identified
CC12CC3CC(C)(C1)CC(N)(C3)C2 [memantine],identification in test screen of NR1/NR2D expressing BHK cells,[1],successfully identified
O=c1[nH]c2ccc(Cl)cc2c(-c2ccccc2)c1C1=NNC(c2ccc(Br)cc2)C1 (centres unmarked) [compound 1249],2D percent response at the maximum tested concentration,[2],79% at 30 μM
CCc1cccc(N(C)C(N)=Nc2cccc3ccccc23)c1 [CNS-1102],identification in test screen of NR1/NR2D expressing BHK cells,[1]; [9],successfully identified
Cc1ccc2cc(C3CC(c4ccc(Br)cc4)=NN3C(=O)CCC(=O)O)c(=O)[nH]c2c1 (centres unmarked) [compound 1177],2D percent response at the maximum tested concentration,[2]; at 100 μM,80% at 100 μM
CCN(CC)C(=O)Oc1ccc(C(=O)Nc2cccc3ccccc23)cc1 [1063-2],IC50,[3],141 µM
same,IC50,[4],6 µM
same,IC50,[5],433 µM
same,IC50,[6],4 µM
same,remaining activity at 100 µM,[7],118%
CCN(CC)C(=O)Oc1ccc(C(=O)Nc2cc(C)cc3c(C)c[nH]c23)cc1 [1063-34],IC50,[3],365 µM
same,IC50,[4],102 µM
same,remaining activity at 100 µM,[5]; [10],71%
same,IC50,[6],93 µM
same,remaining activity at 100 µM,[7],85%
COc1ccc(C2CC(c3c(-c4ccccc4)c4cc(Br)ccc4[nH]c3=O)=NN2C(=O)CCC(=O)O)cc1 (centres unmarked) [compound 1128],2D percent response at the maximum tested concentration,[2]; at 100 μM,90% at 100 μM
C=CCN(CC=C)C(=O)Oc1ccc(C(=O)Nc2cccc3ccccc23)cc1 [1063-5],IC50,[3],719 µM
same,IC50,[4],42 µM
same,remaining activity at 100 µM,[5]; [10],104%
same,IC50,[6],28 µM
same,remaining activity at 100 µM,[7],103%
CC(C)N(C(=O)Oc1ccc(C(=O)Nc2cccc3ccccc23)cc1)C(C)C [1063-4],IC50,[3],158 µM
same,IC50,[4],8 µM
same,IC50,[5],874 µM
same,IC50,[6],5 µM
same,remaining activity at 100 µM,[7],130%
"N[C@@H](CCC(=O)O)C(=O)O [glutamate, reference compound]",EC50,"[2]; submicromolar, method not stated, read-out: EC50 for activation of NR2D-containing receptors",< 0.5 µM
CC(=O)N1N=C(c2c(-c3ccccc3)c3cc(C)ccc3[nH]c2=O)CC1c1ccc(Br)cc1 (centres unmarked) [compound 1250],2D percent response at the maximum tested concentration,[2],81% at 30 μM
CC(C)N(C(=O)Oc1ccc(C(=O)Oc2ccc3cccc(N)c3c2)cc1)C(C)C [1063-13],remaining activity at 100 µM,[3]; [11],84%
same,IC50,[4],385 µM
same,remaining activity at 100 µM,[5]; [10],89%
same,IC50,[6],55 µM
same,remaining activity at 100 µM,[7],117%
CCN(CC)C(=O)Oc1ccc(C(=O)Nc2cccc3c2CCCC3)cc1 [1063-18],IC50,[3],214 µM
same,IC50,[4],23 µM
same,remaining activity at 100 µM,[5]; [10],95%
same,IC50,[6],20 µM
CCN(CC)C(=O)Oc1ccc(C(=O)Nc2cc(C)cc(C)c2)cc1 [1063-17],IC50,[3],89 µM
same,IC50,[4],18 µM
same,remaining activity at 100 µM,[5]; [10],79%
same,IC50,[6],8 µM
O=C(Nc1cccc2ccccc12)c1ccc(OC(=O)C2CC2)cc1 [1063-10],remaining activity at 100 µM,[3]; [12],92%
same,remaining activity at 100 µM,[4]; at 100 μM,86%
same,remaining activity at 100 µM,[5]; [13],111%
same,remaining activity at 100 µM,[6]; at 100 μM,81%
CCN(CC)C(=S)Oc1ccc(C(=O)Nc2ccc3ccccc3c2)cc1 [1063-0],remaining activity at 30 µM,"[3]; at 30 μM, read-out: 2B percent effect at the maximum tested concentration",99%
same,IC50,[4]; [14],243 µM
same,remaining activity at 30 µM,"[5]; at 30 μM, read-out: 2A percent effect at the maximum tested concentration",101%
same,IC50,[6]; [15],91 µM
"O=C(O)C1NCCN(C(=O)c2ccc3c(ccc4ccccc43)c2)C1C(=O)O (centres unmarked) [PPDA, 1-(phenanthrene-2-carbonyl)piperazin-2,3, dicarboxylic acid]",selectivity for NR2D over NR2A,[8],~5 fold
CCN(CC)C(=O)Oc1ccc(C(=O)Nc2cc(C(=O)OC)cc3c(C)c[nH]c23)cc1 [1063-35],IC50,[3],238 µM
same,remaining activity at 100 µM,[4],77%
same,IC50,[5],177 µM
same,remaining activity at 100 µM,[6],80%
same,remaining activity at 100 µM,[7],97%
CCN(CC)C(=O)Nc1ccc(C(=O)Nc2cccc3ccccc23)cc1 [1063-11],remaining activity at 100 µM,[3]; [12],88%
same,IC50,[4]; [14],687 µM
same,remaining activity at 100 µM,[5]; [13],102%
same,IC50,[6]; [15],527 µM
Cn1c(=O)oc2ccc(C(=O)Nc3cccc4ccccc34)cc21 [1063-29],remaining activity at 100 µM,[3]; [12],81%
same,remaining activity at 100 µM,[4]; at 100 μM,80%
same,remaining activity at 100 µM,[5]; [13],92%
same,remaining activity at 100 µM,[6]; at 100 μM,75%
O=C(O)CCC(=O)N1N=C(c2c(-c3ccccc3)c3cc(Br)ccc3[nH]c2=O)CC1c1ccccc1Cl (centres unmarked) [compound 1209],IC50,[3]; [16],35 µM
same,IC50,[4]; [14],22 µM
same,IC50,[5]; [17],79 µM
same,IC50,[6]; [15],13 µM
CCN(CC)C(=O)Oc1ccc(C(=O)Nc2cccc3cc[nH]c23)cc1 [1063-20],IC50,[3],933 µM
same,IC50,[4],5 µM
same,IC50,[5],2420 µM
same,IC50,[6],3 µM
same,remaining activity at 100 µM,[7],92%
CCN(CC)C(=S)Oc1ccc(C(=O)Nc2cccc3cc[nH]c23)cc1 [1063-21],remaining activity at 100 µM,[3]; [12],78%
same,IC50,[4]; [14],15 µM
same,remaining activity at 100 µM,[5]; [13],94%
same,IC50,[6]; [15],4 µM
same,remaining activity at 100 µM,[7]; at 100 μM,102%
(+)MK-801,identification in test screen of NR1/NR2D expressing BHK cells,[1]; [9],successfully identified
CC(C)N(C(=O)Oc1ccc(C(=O)Nc2ccc3[nH]ccc3c2)cc1)C(C)C [1063-16],remaining activity at 100 µM,[3]; [11],81%
same,IC50,[4],30 µM
same,remaining activity at 100 µM,[5]; [10],100%
same,IC50,[6],44 µM
O=C(O)CCC(=O)N1N=C(c2c(-c3ccccc3)c3cc(Cl)ccc3[nH]c2=O)CC1c1cccc(Br)c1 (centres unmarked) [compound 1176],IC50,[3]; [16],30 µM
same,IC50,[4]; [14],7 µM
same,IC50,[5]; [17],24 µM
same,IC50,[6]; [15],4 µM
CCN(CC)C(=S)Oc1ccc(C(=O)Nc2ccc(F)cc2)cc1 [compound 1379],remaining activity at 100 µM,[3]; [12],88%
same,IC50,[4]; [14],247 µM
same,remaining activity at 100 µM,[5]; [13],99%
same,IC50,[6]; [15],55 µM
CCN(C)C(=O)Oc1ccc(C(=O)Nc2cccc3cc[nH]c23)cc1 [1063-30],remaining activity at 100 µM,[3]; [11],71%
same,IC50,[4],72 µM
same,remaining activity at 100 µM,[5]; [10],89%
same,IC50,[6],56 µM
CCN(CC)C(=O)c1ccc(C(=O)Nc2cccc3cc[nH]c23)cc1 [1063-27],remaining activity at 100 µM,[3]; [12],83%
same,remaining activity at 100 µM,[4]; at 100 μM,93%
same,IC50,[5]; [17],497 µM
same,remaining activity at 100 µM,[6]; at 100 μM,82%
CCN(CC)C(=S)Oc1ccc(C(=O)Nc2ccc(Cl)c3ccccc23)cc1 [1063-12],remaining activity at 100 µM,[3]; [12],80%
same,IC50,[4]; [14],25 µM
same,remaining activity at 100 µM,[5]; [13],92%
same,IC50,[6]; [15],100 µM
CCN(CC)C(=O)Oc1ccc(C(=O)Nc2ccc3c(c2)CCCC3)cc1 [1063-19],remaining activity at 100 µM,[3]; [11],74%
same,IC50,[4],58 µM
same,remaining activity at 100 µM,[5]; [10],89%
same,IC50,[6],26 µM
O=C(Nc1cccc2ccccc12)c1ccc2oc(=O)[nH]c2c1 [1063-31],IC50,[3]; [16],334 µM
same,IC50,[4]; [14],526 µM
same,IC50,[5]; [17],550 µM
same,IC50,[6]; [15],366 µM
